Results on 10 compounds are retold here after patent US10526338B2, “Functionalized pentanoic acids for use influenza viral infections” (Janssen Sciences Ireland UC, priority 2016, dated 2020).

SMILES strings stand for the structures. Where two headings read alike, the source gives them in different places.

This test has as its system influenza virus A/Taiwan/1/86 (H1N1). The experiment in a line: organism not typed. The format is cell-based. As to conditions: 72 h, MDCK cells infected by influenza A/Taiwan/1/86 (H1N1), three days post-virus exposure, ATP levels.
Where [1] appears, read: read-out: FLU-AVE-MDCK-ATP-TW_EC50.
Where [2] appears, read: read-out: FLU-AVE-MDCK-ATP-TW_pEC50 (converted).

Take `CC(C)(c1cccs1)C(CC(=O)O)Nc1nc(-c2c[nH]c3ncc(Cl)cc23)c(C#N)cc1F` (stereo not drawn): the EC50 under setting [1] came out at 0.57 nM and the EC50 under setting [2] was 0.631 nM.
In the case of `CC(C)(c1cccs1)C(CC(=O)O)Nc1nc(-c2c[nH]c3ncc(Cl)cc23)ncc1F` (stereo not drawn), the EC50 runs as follows: under setting [1], 2.54 nM; under setting [2], 2.51 nM.
With `CC(C)(c1nccs1)C(CC(=O)O)Nc1nc(-c2c[nH]c3ncc(Cl)cc23)c(C#N)cc1F` (stereo not drawn), the EC50 reads like this: under setting [1], 0.267 nM; under setting [2], 0.251 nM.
Turning to `Cn1ccc(C(C)(C)C(CC(=O)O)Nc2nc(-c3c[nH]c4ncc(Cl)cc34)c(C#N)cc2F)n1` (stereo not drawn), the EC50 is 2.56 nM under setting [1] and 2.51 nM under setting [2].
With `CC1(C(CC(=O)O)Nc2nc(-c3c[nH]c4ncc(Cl)cc34)ncc2F)COC1` (stereo not drawn), the EC50 was 982 nM under setting [1] and 1000 nM under setting [2].
Turning to `C=CCC(C)(C)C(CC(=O)O)Nc1nc(-c2c[nH]c3ncc(Cl)cc23)c(C#N)cc1F` (stereo not drawn), the EC50 reads like this: under setting [1], 1 nM; under setting [2], 1 nM.
In the case of `CC(C)(c1ccccn1)C(CC(=O)O)Nc1nc(-c2c[nH]c3ncc(Cl)cc23)c(C#N)cc1F` (stereo not drawn), the EC50 under setting [1] amounted to 0.47 nM.
In the case of `CC(C)(c1ccccn1)C(CC(=O)O)Nc1nc(-c2c[nH]c3ncncc23)ncc1F` (stereo not drawn), the EC50 under setting [1] worked out at 1890 nM.
`CC(C)(c1ccccn1)[C@H](CC(=O)O)Nc1nc(-c2c[nH]c3ncc(Cl)cc23)c(C#N)cc1F` (single isomer, unassigned): the EC50 under setting [1] turned out to be 0.075 nM and the EC50 under setting [2] is 0.00631 nM.
Taken in the same sequence, the figures for `CC(C)(c1ccccn1)[C@@H](CC(=O)O)Nc1nc(-c2c[nH]c3ncc(Cl)cc23)c(C#N)cc1F` (single isomer, unassigned) were 5.4 nM and 5.01 nM.
